Data as given in ChEMBL document CHEMBL1128575, “Nonpeptidic inhibitors of human leukocyte elastase. 5. Design, synthesis, and X-ray crystallography of a series of orally active 5-aminopyrimidin-6-one-containing trifluoromethyl ketones” (J Med Chem, 1995).
Values after ≈ are worked out from the molar mass of the structure shown. Active and inactive are the calls of the source. No cut-off for these calls is given here.

Legend:
[1] = target: T1, Neutrophil elastase (Homo sapiens, UniProt P08246); test: In vitro inhibition of human leukocyte elastase mediated hydrolysis of the synthetic substrate MeO-Suc-Ala-Ala-Pro-Val-pNA
T1 sequence (P08246 whole entry): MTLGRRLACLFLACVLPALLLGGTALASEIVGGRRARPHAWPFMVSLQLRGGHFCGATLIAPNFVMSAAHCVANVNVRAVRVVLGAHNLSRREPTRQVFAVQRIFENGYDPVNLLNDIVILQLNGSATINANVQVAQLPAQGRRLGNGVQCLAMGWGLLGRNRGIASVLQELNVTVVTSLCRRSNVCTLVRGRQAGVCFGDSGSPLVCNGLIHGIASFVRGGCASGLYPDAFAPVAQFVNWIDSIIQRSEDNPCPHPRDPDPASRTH

[2] = test system: Cricetinae gen. sp.; test: Oral dose of 20 mg/Kg (30 min prior to instillation of elastase) was tested for the inhibition of elastase-induced lung hemorrhage in hamster; Not active; type: functional, organism-based; conditions: Cricetulus griseus
[3] = test system: Cricetinae gen. sp.; test: Oral dose of 2.5 mg/Kg (90 min prior to instillation of elastase) was tested for the inhibition of elastase-induced lung hemorrhage in hamster; type: functional, Cricetulus griseus
[4] = test system: Cricetinae gen. sp.; test: Compound at an oral dose of 20 mg/Kg (90 min prior to instillation of elastase) was tested for the inhibition of elastase-induced lung hemorrhage in hamster; type: functional, Cricetulus griseus
[5] = Solubility of compound in 0.01 M sodium phosphate buffer at pH = […]; type: physicochemical; conditions: pH 7.4
[6] = test system: Cricetinae gen. sp.; test: Oral dose of 20 mg/Kg (30 min prior to instillation of elastase) was tested for the inhibition of elastase-induced lung hemorrhage in hamster; type: functional, Cricetulus griseus
[7] = Selectivity ratio for bovine pancreatic chymotrypsin and HLE
[8] = Partition coefficient (logP); type: physicochemical; conditions: octanol/water
[9] = test system: Cricetinae gen. sp.; test: Oral dose of 2.5 mg/Kg (30 min prior to instillation of elastase) was tested for the inhibition of elastase-induced lung hemorrhage in hamster; Not active; type: functional, organism-based; conditions: Cricetulus griseus
[10] = test system: Cricetinae gen. sp.; test: Oral dose of 2.5 mg/Kg (30 min prior to instillation of elastase) was tested for the inhibition of elastase-induced lung hemorrhage in hamster; type: functional, Cricetulus griseus
[11] = test system: Cricetinae gen. sp.; test: Compound at an oral dose of 2.5 mg/Kg (90 min prior to instillation of elastase) was tested for the inhibition of elastase-induced lung hemorrhage in hamster; Not active; type: functional, organism-based; conditions: Cricetulus griseus

| Ki [1] [nM] | SMILES | inhibition [2] | inhibition in vivo at 20 mg/kg [6] [%] | further results |
| --- | --- | --- | --- | --- |
| 3.6 | CC(C)C(NC(=O)Cn1c(-c2ccc(N)cc2)ncc(NC(=O)OCc2ccccc2)c1=O)C(=O)C(F)(F)F (stereo not drawn) | inactive | – | – |
| 40 | CC(C)C(NC(=O)Cn1c(-c2ccccc2)ncc(NC(=O)OCC(F)(F)F)c1=O)C(=O)C(F)(F)F (stereo not drawn) | – | – | inhibition in vivo at 2.5 mg/kg [3]: 39%; inhibition in vivo at 20 mg/kg [4]: 47% |
| 22 | CC(C)C(NC(=O)Cn1c(-c2ccc(F)cc2)ncc(NC(=O)OCc2ccccn2)c1=O)C(=O)C(F)(F)F (stereo not drawn) | inactive | – | – |
| – | CC(C)C(NC(=O)Cn1c(-c2ccc(N)cc2)ncc(NS(C)(=O)=O)c1=O)C(=O)C(F)(F)F (stereo not drawn) | inactive | – | – |
| 11 | CC(C)C(NC(=O)Cn1c(-c2cccs2)ncc(NC(=O)OCc2ccccc2)c1=O)C(=O)C(F)(F)F (stereo not drawn) | – | 57 | solubility [5]: 48 µg/mL (≈ 89.5 µM); Ratio [7]: 162; logP [8]: 2 |
| 0.96 | Cc1cncc(C)c1COC(=O)Nc1cnc(-c2ccc(F)cc2)n(CC(=O)NC(B2OC(C)(C)C(C)(C)O2)C(C)C)c1=O (stereo not drawn) | – | – | inhibition [9]: inactive |
| 8.1 | COc1ccc(-c2ncc(NC(=O)OCc3ccccc3)c(=O)n2CC(=O)NC(C(=O)C(F)(F)F)C(C)C)cc1 (stereo not drawn) | inactive | – | Ratio [7]: 272 |
| 52 | CC(C)C(NC(=O)Cn1c(-c2cccs2)ncc(N)c1=O)C(=O)C(F)(F)F (stereo not drawn) | – | 75 | inhibition in vivo at 2.5 mg/kg [10]: 47%; inhibition in vivo at 2.5 mg/kg [3]: 37% |
| 1.6 | CC(C)C(NC(=O)Cn1c(-c2ccc(F)cc2)ncc(NS(=O)(=O)C2CCCCC2)c1=O)C(=O)C(F)(F)F (stereo not drawn) | – | – | inhibition [9]: inactive |
| 170 | CC(C)c1ncc(NC(=O)OCc2ccccc2)c(=O)n1CC(=O)NC(C(=O)C(F)(F)F)C(C)C (stereo not drawn) | inactive | – | solubility [5]: 40 µg/mL (≈ 80.6 µM); Ratio [7]: 100; logP [8]: 2.6 |
| 72 | CC(C)C(NC(=O)Cn1c(-c2cc(C(F)(F)F)cc(C(F)(F)F)c2)ncc(NC(=O)OCc2ccccc2)c1=O)C(=O)C(F)(F)F (stereo not drawn) | inactive | – | – |
| 42 | COC(=O)Nc1cnc(-c2cccs2)n(CC(=O)NC(C(=O)C(F)(F)F)C(C)C)c1=O (stereo not drawn) | – | 80 | inhibition in vivo at 2.5 mg/kg [10]: 49%; inhibition [11]: inactive |
| 6.2 | CC(C)C(NC(=O)Cn1c(-c2ccc(F)cc2)ncc(N)c1=O)B1OC(C)(C)C(C)(C)O1 (stereo not drawn) | – | 39 | inhibition [9]: inactive |
| 94 | CC(C)C(NC(=O)Cn1c(-c2ccccc2)ncc(NC(=O)C(F)(F)F)c1=O)C(=O)C(F)(F)F (stereo not drawn) | – | 73 | inhibition in vivo at 2.5 mg/kg [10]: 37%; inhibition [11]: inactive |
| 46 | CNc1cnc(-c2ccc(F)cc2)n(CC(=O)NC(C(=O)C(F)(F)F)C(C)C)c1=O (stereo not drawn) | – | 89 | inhibition in vivo at 2.5 mg/kg [10]: 43%; inhibition [11]: inactive |
| 27 | CC(C)C(NC(=O)Cn1c(-c2cccs2)ncc(NC(=O)OC(C)(C)C)c1=O)C(=O)C(F)(F)F (stereo not drawn) | – | 92 | inhibition in vivo at 2.5 mg/kg [10]: 50%; inhibition in vivo at 2.5 mg/kg [3]: 33% |
| 23 | CC(C)C(NC(=O)Cn1c(-c2ccc(F)cc2)ncc(NC(=O)OCc2ccncc2)c1=O)C(=O)C(F)(F)F (stereo not drawn) | inactive | – | – |
| 17 | CC(C)C(NC(=O)Cn1c(-c2ccc([N+](=O)[O-])cc2)ncc(NC(=O)OCc2ccccc2)c1=O)C(=O)C(F)(F)F (stereo not drawn) | inactive | – | Ratio [7]: 406 |
| 270 | CC(C)C(NC(=O)Cn1c(-c2cc(F)cc(F)c2)ncc(N)c1=O)C(=O)C(F)(F)F (stereo not drawn) | – | 72 | inhibition in vivo at 2.5 mg/kg [3]: 45% |
